The text below walks through data of patent US8440708B2, “Triazole-substituted arylamides as P2X3 and P2X2/3 antagonists” (Roche Palo Alto LLC, priority 2007, dated 2013).

The target in one assay is T1, rat P2X3 receptor (Rattus norvegicus, UniProt P49654).
T1 construct: expressed in transfected cells; host or cells: CHO-K1
T1 sequence (P49654 1-397): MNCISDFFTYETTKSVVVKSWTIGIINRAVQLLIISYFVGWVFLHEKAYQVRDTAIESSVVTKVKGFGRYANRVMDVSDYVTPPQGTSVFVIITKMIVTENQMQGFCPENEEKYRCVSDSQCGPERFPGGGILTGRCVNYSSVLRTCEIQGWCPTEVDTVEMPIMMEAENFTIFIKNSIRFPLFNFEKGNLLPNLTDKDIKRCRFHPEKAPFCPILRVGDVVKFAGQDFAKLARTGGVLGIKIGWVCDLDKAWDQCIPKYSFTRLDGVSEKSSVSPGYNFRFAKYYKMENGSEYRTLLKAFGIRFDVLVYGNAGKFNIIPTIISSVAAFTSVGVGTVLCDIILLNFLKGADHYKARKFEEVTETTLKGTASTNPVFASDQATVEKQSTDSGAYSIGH
The experiment in a line: P2X3/P2X2/3 FLIPR (Fluorometric Imaging Plate Reader) Assay, P2X3. The format is cell-based. The note with it: CHO-K1 cells transfected with rat P2X3; agonist α,β-meATP 1 μM; Table 1; read-out: P2X3 pKi (converted). A digest of the protocol: (§1)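 Cells are dye-loaded with Fluo-3 AM, then exposed to test compound for 20 minutes at room temperature. Next, α,β-meATP is added (final 1 μM for rat P2X3, 5 μM for human P2X2/3 in CHO-K1), and the peak calcium fluorescence yields inhibition curves by nonlinear regression.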

The next assay addresses T2, human P2X2/3 receptor (Homo sapiens, UniProt P56373+Q9UBL9).
T2 construct: expressed in transfected cells; host or cells: CHO-K1
T2 sequence (Q9UBL9 1-471): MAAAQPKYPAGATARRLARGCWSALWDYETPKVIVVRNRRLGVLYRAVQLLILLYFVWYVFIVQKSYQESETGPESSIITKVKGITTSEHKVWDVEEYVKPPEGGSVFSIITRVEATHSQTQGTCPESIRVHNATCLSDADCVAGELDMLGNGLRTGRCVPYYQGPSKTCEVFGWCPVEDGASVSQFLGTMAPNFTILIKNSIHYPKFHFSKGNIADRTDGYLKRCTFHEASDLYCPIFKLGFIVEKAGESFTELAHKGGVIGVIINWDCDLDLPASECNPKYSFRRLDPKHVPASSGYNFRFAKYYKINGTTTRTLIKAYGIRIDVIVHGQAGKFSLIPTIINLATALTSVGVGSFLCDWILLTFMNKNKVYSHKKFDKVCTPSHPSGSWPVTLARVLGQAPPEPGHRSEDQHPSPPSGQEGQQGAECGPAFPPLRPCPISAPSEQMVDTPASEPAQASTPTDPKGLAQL
T2 sequence (P56373 1-397): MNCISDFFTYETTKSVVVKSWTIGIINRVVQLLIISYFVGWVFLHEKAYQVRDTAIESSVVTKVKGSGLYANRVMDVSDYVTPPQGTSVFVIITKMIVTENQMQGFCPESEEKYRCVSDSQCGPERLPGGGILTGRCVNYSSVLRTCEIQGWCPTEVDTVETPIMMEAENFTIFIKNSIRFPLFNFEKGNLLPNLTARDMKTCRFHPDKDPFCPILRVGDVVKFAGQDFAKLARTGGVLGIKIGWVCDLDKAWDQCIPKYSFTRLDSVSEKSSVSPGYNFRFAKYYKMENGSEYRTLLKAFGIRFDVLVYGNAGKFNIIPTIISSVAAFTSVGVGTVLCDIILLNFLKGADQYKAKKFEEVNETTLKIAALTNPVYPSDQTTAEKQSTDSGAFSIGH
The experiment in a line: P2X3/P2X2/3 FLIPR (Fluorometric Imaging Plate Reader) Assay, P2X2/3. The format is cell-based. The note with it: CHO-K1 cells transfected with human P2X2/3; agonist α,β-meATP 5 μM; Table 1; read-out: P2X2/3 pKi (converted). A digest of the protocol:
as §1

Turning to `COCCc1ncnn1-c1cc(C(=O)N[C@@H](C)CO)cc(-c2ccc(C)cn2)c1` [Compound 148, N-((S)-2-Hydroxy-1-methyl-ethyl)-3-[5-(2-methoxy-ethyl)-1-[1,2,4]triazol-1-yl]-5-(5-methyl-pyridin-2-yl)-benzamide], the Ki on rat P2X3 receptor is 60.3 nM; at human P2X2/3 receptor it was 10000 nM.
Regarding `CCOCCc1ncnn1-c1cc(C(=O)NCc2cnc(C)cn2)cc(-c2ccc(C)cn2)c1` [Compound 149, 3-[5-(2-Ethoxy-ethyl)-[1,2,4]triazol-1-yl]-N-(5-methyl-pyrazin-2-ylmethyl)-5-(5-methyl-pyridin-2-yl)-benzamide], the results for the Ki on rat P2X3 receptor and at human P2X2/3 receptor were 20 nM and 7240 nM, respectively.
In the case of `CCOCCc1ncnn1-c1cc(C(=O)N[C@@H](C)CO)cc(-c2ccc(C)cn2)c1` [Compound 150, 3-[5-(2-Ethoxy-ethyl)-[1,2,4]triazol-1-yl]-N-((S)-2-hydroxy-1-methyl-ethyl)-5-(5-methyl-pyridin-2-yl)-benzamide], the Ki was 158 nM on rat P2X3 receptor and 10000 nM on human P2X2/3 receptor.
On the same counts, the results for `Cc1ccc(-c2cc(C(=O)NCc3cnc(C)cn3)cc(-n3ncnc3C3CNC3)c2)nc1` [Compound 151, 3-(5-Azetidin-3-yl-[1,2,4]triazol-1-yl)-N-(5-methyl-pyrazin-2-ylmethyl)-5-(5-methyl-pyridine-2-yl)-benzamide] are 676 nM and 7240 nM.
Turning to `Cc1ccc(-c2cc(C(=O)NCc3ccc(C)nn3)cc(-n3ncnc3C3CCC3)c2)nc1` [Compound 152, 3-(5-Cyclobutyl-[1,2,4]triazol-1-yl)-N-(6-methyl-pyridazin-3-ylmethyl)-5-(5-methyl-pyridin-2-yl)-benzamide], the values for the Ki on rat P2X3 receptor and at human P2X2/3 receptor were 5.75 nM and 23.4 nM, respectively.
In the case of `Cc1ccc(-c2cc(C(=O)NCc3ccc(=O)n(C)c3)cc(-n3ncnc3C(C)C)c2)nc1` [Compound 153, 3-(5-Isopropyl-[1,2,4]triazol-1-yl)-N-(1-methyl-6-oxo-1,6-dihydro-pyridin-3-ylmethyl)-5-(5-methyl-pyridin-2-yl)-benzamide], the Ki on rat P2X3 receptor is 26.9 nM; at human P2X2/3 receptor, 4370 nM.
On to `COCCc1nc(C)nn1-c1cc(C(=O)N[C@@H](C)CO)cc(-c2ccc(C)cn2)c1` [Compound 155, N-((S)-2-Hydroxy-1-methyl-ethyl)-3-[5-(2-methoxy-ethyl)-3-methyl-[1,2,4]triazol-1-yl]-5-(5-methyl-pyridin-2-yl)-benzamide], for which the Ki was 3310 nM at rat P2X3 receptor and 10000 nM on human P2X2/3 receptor.
As to `Cc1ccc(-c2cc(C(=O)NCc3cnc(C)cn3)cc(-n3ncnc3CC(C)(C)O)c2)nc1` [Compound 156, 3-[5-(2-Hydroxy-2-methyl-propyl)-[1,2,4]triazol-1-yl]-N-(5-methyl-pyrazin-2-ylmethyl)-5-(5-methyl-pyridin-2-yl)-benzamide], the Ki at rat P2X3 receptor was 123 nM; at human P2X2/3 receptor, 10000 nM.
For the compound `Cc1ccc(-c2cc(C(=O)NCc3cnc(C)cn3)cc(-n3ncnc3C3CN(C)C3)c2)nc1` [Compound 157, 3-[5-(1-Methyl-azetidin-3-yl)-[1,2,4]triazol-1-yl]-N-(5-methyl-pyrazin-2-ylmethyl)-5-(5-methyl-pyridin-2-yl)-benzamide], the Ki at rat P2X3 receptor is 676 nM; at human P2X2/3 receptor, 10000 nM.
On the same counts, the results for `Cc1cnc(CNC(=O)c2cc(-c3ccc(Cl)cn3)cc(-n3ncnc3C(C)N(C)C)c2)cn1` (stereo not drawn) [Compound 158, 3-(5-Chloro-pyridin-2-yl)-5-[5-(1-dimethylamino-ethyl)-[1,2,4]triazol-1-yl]-N-(5-methyl-pyrazin-2-ylmethyl)-benzamide] are 37.2 nM and 851 nM.
With `Cc1ccc(-c2cc(C(=O)NCc3ccn(C)c(=O)c3)cc(-n3ncnc3C(C)C)c2)nc1` [Compound 159, 3-(5-Isopropyl-[1,2,4]triazol-1-yl)-N-(1-methyl-2-oxo-1,2-dihydro-pyridin-4-ylmethyl)-5-(5-methyl-pyridin-2-yl)-benzamide], the Ki at rat P2X3 receptor is 2.95 nM; on human P2X2/3 receptor, 26.3 nM.
Turning to `Cc1ccc(-c2cc(C(=O)NCc3cnc(C)cn3)cc(-n3ncnc3C(F)(F)F)c2F)nc1` [Compound 164, 4-Fluoro-N-(5-methyl-pyrazin-2-ylmethyl)-3-(5-methyl-pyridin-2-yl)-5-(5-trifluoromethyl-[1,2,4]triazol-1-yl)-benzamide], the Ki at rat P2X3 receptor is 11.5 nM; at human P2X2/3 receptor, 302 nM.
As for `Cc1ccc(-c2cc(-n3ncnc3C(F)(F)F)cc(C(=O)N[C@@H](C)CO)c2F)nc1` [Compound 167, 2-Fluoro-N-((S)-2-hydroxy-1-methyl-ethyl)-3-(5-methyl-pyridin-2-yl)-5-(5-trifluoromethyl-[1,2,4]triazol-1-yl)-benzamide], the Ki is 2.51 nM at rat P2X3 receptor and 12 nM at human P2X2/3 receptor.
For `Cc1ccc(-c2cc(-n3ncnc3C(F)(F)F)cc(C(=O)NC(C)c3cnccn3)c2F)nc1` (stereo not drawn) [Compound 168, 2-Fluoro-3-(5-methyl-pyridin-2-yl)-N-(1-pyrazin-2-yl-ethyl)-5-(5-trifluoromethyl-[1,2,4]triazol-1-yl)-benzamide], the values for the Ki at rat P2X3 receptor and on human P2X2/3 receptor were 13.5 nM and 2690 nM, respectively.
`Cc1ccc(-c2cc(-n3ncnc3C(F)(F)F)cc(C(=O)NCc3cnc(C)cn3)c2F)nc1` [Compound 169, 2-Fluoro-N-(5-methyl-pyrazin-2-ylmethyl)-3-(5-methyl-pyridin-2-yl)-5-(5-trifluoromethyl-[1,2,4]triazol-1-yl)-benzamide]: the Ki is 4.27 nM on rat P2X3 receptor and 95.5 nM on human P2X2/3 receptor.
For `Cc1ccc(-c2cc(C(=O)NCc3ncc(C)cn3)cc(-n3ncnc3C(F)(F)F)c2)nc1` [Compound 171, 3-(5-Methyl-pyridin-2-yl)-N-(5-methyl-pyrimidin-2-ylmethyl)-5-(5-trifluoromethyl-[1,2,4]triazol-1-yl)-benzamide], the values for the Ki at rat P2X3 receptor and at human P2X2/3 receptor were 16.6 nM and 209 nM, respectively.
As to `Cc1ccc(-c2cc(-n3ncnc3C(C)C)cc(C(=O)NC(C)c3cnccn3)c2F)nc1` (stereo not drawn) [Compound 173, 2-Fluoro-5-(5-isopropyl-[1,2,4]triazol-1-yl)-3-(5-methyl-pyridin-2-yl)-N-(1-pyrazin-2-yl-ethyl)-benzamide], the Ki was 3.98 nM at rat P2X3 receptor and 85.1 nM at human P2X2/3 receptor.
For `Cc1ccc(-c2cc(-n3ncnc3C(C)C)cc(C(=O)N[C@@H](C)CO)c2F)nc1` [Compound 174, 2-Fluoro-N-((S)-2-hydroxy-1-methyl-ethyl)-5-(5-isopropyl-[1,2,4]triazol-1-yl)-3-(5-methyl-pyridin-2-yl)-benzamide], the Ki was 6.46 nM on rat P2X3 receptor and 1620 nM on human P2X2/3 receptor.
In the case of `Cc1ccc(-c2cc(-n3ncnc3C(F)(F)F)cc(C(=O)NCc3ccc(C)nn3)c2F)nc1` [Compound 176, 2-Fluoro-N-(6-methyl-pyridazin-3-ylmethyl)-3-(5-methyl-pyridin-2-yl)-5-(5-trifluoromethyl-[1,2,4]triazol-1-yl)-benzamide], the Ki at rat P2X3 receptor is 3.72 nM; at human P2X2/3 receptor, 32.4 nM.
For `Cc1ccc(-c2cc(-n3ncnc3C(F)(F)F)cc(C(=O)NCc3ncc(C)cn3)c2F)nc1` [Compound 177, 2-Fluoro-3-(5-methyl-pyridin-2-yl)-N-(5-methyl-pyrimidin-2-ylmethyl)-5-(5-trifluoromethyl-[1,2,4]triazol-1-yl)-benzamide], the Ki at rat P2X3 receptor is 24 nM; at human P2X2/3 receptor, 151 nM.
Consider `Cc1ccc(-c2cc(-n3ncnc3C(F)(F)F)cc(C(=O)NCc3cnc(C)nc3)c2F)nc1` [Compound 178, 2-Fluoro-3-(5-methyl-pyridin-2-yl)-N-(2-methyl-pyrimidin-5-ylmethyl)-5-(5-trifluoromethyl-[1,2,4]triazol-1-yl)-benzamide], for which the values for the Ki on rat P2X3 receptor and at human P2X2/3 receptor were 3.63 nM and 51.3 nM, respectively.
